Oligonucleotides are written 5' to 3', each unit as a sugar letter and its base; * is a phosphorothioate linkage, no mark a phosphodiester; rarer units and linkages stand in square brackets, end groups in braces. Plain capitals give the bases only. d = 2'-deoxy (DNA); r = 2'-OH (RNA)
Note: test concentration or dose not given here.

The target in the data set is MRFAP1. The experiment in a line: reporter assay of Huesken 2005. The note with it: siRNA. Background: Reporter assays use an easily measured gene product as a stand-in for the process of interest.
Consider “sense rCrGrGrArCrGrCrGrCrGrCrCrCrGrUrGrCrGrCdTdT / antisense rGrCrGrCrArCrGrGrGrCrGrCrGrCrGrUrCrCrGdCdG”, for which the normalised inhibition (eCFP-eYFP dual reporter) was 19.7%.

Consider “sense rCrGrGrCrGrGrArArGrUrUrUrUrGrArArGrArCdTdT / antisense rGrUrCrUrUrCrArArArArCrUrUrCrCrGrCrCrGdCdT”, for which the normalised inhibition (eCFP-eYFP dual reporter) is 94.8%.

In the case of “sense rCrGrGrGrGrCrArArGrCrUrGrUrGrGrGrArGrAdTdT / antisense rUrCrUrCrCrCrArCrArGrCrUrUrGrCrCrCrCrGdGdT”, the normalised inhibition (eCFP-eYFP dual reporter) stood at 69.6%.

For the substance “sense rCrGrGrUrArUrGrGrGrArGrArUrGrArGrGrUrCdTdT / antisense rGrArCrCrUrCrArUrCrUrCrCrCrArUrArCrCrGdGdG”, the normalised inhibition (eCFP-eYFP dual reporter) was 84.8%.

As to “sense rCrUrArGrGrArCrUrGrArUrGrArCrCrUrGrGrGdTdT / antisense rCrCrCrArGrGrUrCrArUrCrArGrUrCrCrUrArGdCdC”, the normalised inhibition (eCFP-eYFP dual reporter) is 63.1%.

Regarding “sense rCrUrArUrCrUrArUrUrArUrArArCrCrUrGrCrCdTdT / antisense rGrGrCrArGrGrUrUrArUrArArUrArGrArUrArGdTdG”, the normalised inhibition (eCFP-eYFP dual reporter) is 90.4%.

Turning to “sense rCrUrArUrUrArUrArArCrCrUrGrCrCrUrGrArUdTdT / antisense rArUrCrArGrGrCrArGrGrUrUrArUrArArUrArGdAdT”, the normalised inhibition (eCFP-eYFP dual reporter) stood at 88%.

Take “sense rCrUrCrArArCrCrArCrCrUrGrCrArGrGrGrCrGdTdT / antisense rCrGrCrCrCrUrGrCrArGrGrUrGrGrUrUrGrArGdAdG”: the normalised inhibition (eCFP-eYFP dual reporter) came out at 43.2%.

For the substance “sense rCrUrCrUrGrArGrGrArGrArGrCrGrCrUrCrUrCdTdT / antisense rGrArGrArGrCrGrCrUrCrUrCrCrUrCrArGrArGdGdC”, the normalised inhibition (eCFP-eYFP dual reporter) was 48.8%.

Consider “sense rCrUrGrArCrArCrUrArCrGrUrUrUrCrUrGrCrUdTdT / antisense rArGrCrArGrArArArCrGrUrArGrUrGrUrCrArGdTdG”, for which the normalised inhibition (eCFP-eYFP dual reporter) stood at 99.3%.

For “sense rCrUrGrArGrArCrUrUrGrGrArGrUrUrGrGrArGdTdT / antisense rCrUrCrCrArArCrUrCrCrArArGrUrCrUrCrArGdTdG”, the normalised inhibition (eCFP-eYFP dual reporter) is 81.5%.

As to “sense rCrUrGrCrCrCrGrUrCrArUrCrCrArCrGrArGrAdTdT / antisense rUrCrUrCrGrUrGrGrArUrGrArCrGrGrGrCrArGdCdA”, the normalised inhibition (eCFP-eYFP dual reporter) was 70.8%.

Regarding “sense rCrUrGrCrUrGrCrCrCrGrUrCrArUrCrCrArCrGdTdT / antisense rCrGrUrGrGrArUrGrArCrGrGrGrCrArGrCrArGdAdA”, the normalised inhibition (eCFP-eYFP dual reporter) came out at 39.5%.

As to “sense rCrUrGrUrGrGrGrArGrArUrGrGrArCrArArUrAdTdT / antisense rUrArUrUrGrUrCrCrArUrCrUrCrCrCrArCrArGdCdT”, the normalised inhibition (eCFP-eYFP dual reporter) stood at 82.9%.

As for “sense rCrUrUrCrGrArGrCrArGrUrUrUrCrUrGrCrUrGdTdT / antisense rCrArGrCrArGrArArArCrUrGrCrUrCrGrArArGdTdC”, the normalised inhibition (eCFP-eYFP dual reporter) was determined as 59.9%.

On to “sense rCrUrUrGrCrArArUrArCrCrCrUrUrUrGrUrGrUdTdT / antisense rArCrArCrArArArGrGrGrUrArUrUrGrCrArArGdGdA”, for which the normalised inhibition (eCFP-eYFP dual reporter) was 74.1%.

On to “sense rCrUrUrGrGrArGrUrUrGrGrArGrCrUrCrArCrCdTdT / antisense rGrGrUrGrArGrCrUrCrCrArArCrUrCrCrArArGdTdC”, for which the normalised inhibition (eCFP-eYFP dual reporter) was 55.2%.

As to “sense rCrUrUrGrUrUrCrGrUrCrUrGrUrArCrArArGrUdTdT / antisense rArCrUrUrGrUrArCrArGrArCrGrArArCrArArGdAdC”, the normalised inhibition (eCFP-eYFP dual reporter) was 54.3%.

With “sense rGrArArArCrCrArGrArGrArGrCrCrUrUrUrGrUdTdT / antisense rArCrArArArGrGrCrUrCrUrCrUrGrGrUrUrUrCdAdG”, the normalised inhibition (eCFP-eYFP dual reporter) is 86%.

As to “sense rGrArArArGrArUrCrCrUrUrGrCrArArUrArCrCdTdT / antisense rGrGrUrArUrUrGrCrArArGrGrArUrCrUrUrUrCdAdT”, the normalised inhibition (eCFP-eYFP dual reporter) came out at 82.6%.

With “sense rGrArArCrArGrCrGrGrCrGrGrArArGrUrUrUrUdTdT / antisense rArArArArCrUrUrCrCrGrCrCrGrCrUrGrUrUrCdCdA”, the normalised inhibition (eCFP-eYFP dual reporter) was 84.3%.

“sense rGrArArUrArArCrGrUrUrCrArUrUrCrCrUrGrGdTdT / antisense rCrCrArGrGrArArUrGrArArCrGrUrUrArUrUrCdAdC”: the normalised inhibition (eCFP-eYFP dual reporter) was found to be 66.8%.

As for “sense rGrArCrGrCrArGrUrGrGrArGrCrUrGrGrCrGrGdTdT / antisense rCrCrGrCrCrArGrCrUrCrCrArCrUrGrCrGrUrCdCdA”, the normalised inhibition (eCFP-eYFP dual reporter) came to 65.5%.

Take “sense rGrArCrUrUrCrArUrCrUrGrGrGrArCrUrGrUrGdTdT / antisense rCrArCrArGrUrCrCrCrArGrArUrGrArArGrUrCdTdG”: the normalised inhibition (eCFP-eYFP dual reporter) amounted to 82.4%.

With “sense rGrArGrArArGrGrArArArArCrCrUrGrCrArArUdTdT / antisense rArUrUrGrCrArGrGrUrUrUrUrCrCrUrUrCrUrCdAdG”, the normalised inhibition (eCFP-eYFP dual reporter) worked out at 79.1%.

Take “sense rGrArGrArGrCrCrUrUrUrGrUrUrUrUrCrCrUrUdTdT / antisense rArArGrGrArArArArCrArArArGrGrCrUrCrUrCdTdG”: the normalised inhibition (eCFP-eYFP dual reporter) amounted to 106%.

For “sense rGrArGrArUrGrCrUrGrGrUrGrCrArGrCrUrCrGdTdT / antisense rCrGrArGrCrUrGrCrArCrCrArGrCrArUrCrUrCdGdG”, the normalised inhibition (eCFP-eYFP dual reporter) came out at 32.2%.

With “sense rGrArGrCrCrGrUrCrCrGrCrGrGrUrUrUrCrCrAdTdT / antisense rUrGrGrArArArCrCrGrCrGrGrArCrGrGrCrUrCdAdC”, the normalised inhibition (eCFP-eYFP dual reporter) is 70.1%.

Take “sense rGrArGrGrArCrArUrCrGrCrGrUrCrGrCrUrGrAdTdT / antisense rUrCrArGrCrGrArCrGrCrGrArUrGrUrCrCrUrCdGdC”: the normalised inhibition (eCFP-eYFP dual reporter) worked out at 77.9%.

For the substance “sense rGrArGrGrArCrUrCrCrArUrGrCrArGrCrArArUdTdT / antisense rArUrUrGrCrUrGrCrArUrGrGrArGrUrCrCrUrCdTdT”, the normalised inhibition (eCFP-eYFP dual reporter) was determined as 44.8%.

With “sense rGrArGrGrUrCrUrUrGrUrUrCrGrUrCrUrGrUrAdTdT / antisense rUrArCrArGrArCrGrArArCrArArGrArCrCrUrCdAdT”, the normalised inhibition (eCFP-eYFP dual reporter) worked out at 72.7%.

For “sense rGrArGrUrGrUrCrGrUrGrCrArGrArCrArArGrCdTdT / antisense rGrCrUrUrGrUrCrUrGrCrArCrGrArCrArCrUrCdAdG”, the normalised inhibition (eCFP-eYFP dual reporter) amounted to 64.8%.

Turning to “sense rGrArUrCrArArGrArCrGrCrArGrGrUrArGrArGdTdT / antisense rCrUrCrUrArCrCrUrGrCrGrUrCrUrUrGrArUrCdTdG”, the normalised inhibition (eCFP-eYFP dual reporter) was found to be 72%.

With “sense rGrCrArArArGrCrArGrCrGrGrArGrArUrGrCrGdTdT / antisense rCrGrCrArUrCrUrCrCrGrCrUrGrCrUrUrUrGrCdTdT”, the normalised inhibition (eCFP-eYFP dual reporter) was 74.8%.

As to “sense rGrCrGrCrCrCrGrUrGrCrGrCrArArCrCrGrGrGdTdT / antisense rCrCrCrGrGrUrUrGrCrGrCrArCrGrGrGrCrGrCdGdC”, the normalised inhibition (eCFP-eYFP dual reporter) is 55.3%.

As for “sense rGrCrUrCrUrUrUrCrUrUrGrGrGrUrGrArCrCrUdTdT / antisense rArGrGrUrCrArCrCrCrArArGrArArArGrArGrCdAdA”, the normalised inhibition (eCFP-eYFP dual reporter) was 95.8%.

In the case of “sense rGrCrUrGrArArArCrCrArGrArGrArGrCrCrUrUdTdT / antisense rArArGrGrCrUrCrUrCrUrGrGrUrUrUrCrArGrCdTdT”, the normalised inhibition (eCFP-eYFP dual reporter) was determined as 102%.

With “sense rGrGrArArArArUrGrCrGrCrUrCrArCrArUrArCdTdT / antisense rGrUrArUrGrUrGrArGrCrGrCrArUrUrUrUrCrCdAdA”, the normalised inhibition (eCFP-eYFP dual reporter) amounted to 86.7%.

As for “sense rGrGrArCrArGrCrCrUrArArCrUrCrArUrUrUrUdTdT / antisense rArArArArUrGrArGrUrUrArGrGrCrUrGrUrCrCdCdA”, the normalised inhibition (eCFP-eYFP dual reporter) was found to be 62.8%.

As for “sense rGrGrArGrArUrGrGrCrGrArArGrArUrGrGrCrCdTdT / antisense rGrGrCrCrArUrCrUrUrCrGrCrCrArUrCrUrCrCdTdG”, the normalised inhibition (eCFP-eYFP dual reporter) stood at 72.4%.

For the substance “sense rGrGrArGrGrArUrUrGrUrArUrUrGrUrUrUrCrUdTdT / antisense rArGrArArArCrArArUrArCrArArUrCrCrUrCrCdGdA”, the normalised inhibition (eCFP-eYFP dual reporter) worked out at 105%.

“sense rGrGrArGrUrUrGrGrArGrCrUrCrArCrCrGrCrCdTdT / antisense rGrGrCrGrGrUrGrArGrCrUrCrCrArArCrUrCrCdAdA”: the normalised inhibition (eCFP-eYFP dual reporter) was determined as 50%.

For the substance “sense rGrGrArUrUrGrUrArUrUrGrUrUrUrCrUrArUrGdTdT / antisense rCrArUrArGrArArArCrArArUrArCrArArUrCrCdTdC”, the normalised inhibition (eCFP-eYFP dual reporter) turned out to be 93.3%.

“sense rGrGrCrArArGrCrUrGrUrGrGrGrArGrArUrGrGdTdT / antisense rCrCrArUrCrUrCrCrCrArCrArGrCrUrUrGrCrCdCdC”: the normalised inhibition (eCFP-eYFP dual reporter) was 81%.

On to “sense rGrGrCrCrUrUrArCrArCrGrGrCrUrArGrGrArCdTdT / antisense rGrUrCrCrUrArGrCrCrGrUrGrUrArArGrGrCrCdCdA”, for which the normalised inhibition (eCFP-eYFP dual reporter) is 60%.

With “sense rGrGrGrCrGrGrCrGrCrCrGrArGrCrCrCrCrGrCdTdT / antisense rGrCrGrGrGrGrCrUrCrGrGrCrGrCrCrGrCrCrCdGdC”, the normalised inhibition (eCFP-eYFP dual reporter) came to 74.9%.

With “sense rGrGrGrUrGrArCrCrUrGrArUrArGrCrUrCrCrCdTdT / antisense rGrGrGrArGrCrUrArUrCrArGrGrUrCrArCrCrCdAdA”, the normalised inhibition (eCFP-eYFP dual reporter) was 87.1%.

With “sense rGrGrUrArUrCrCrCrCrArUrArUrArUrUrUrGrAdTdT / antisense rUrCrArArArUrArUrArUrGrGrGrGrArUrArCrCdAdA”, the normalised inhibition (eCFP-eYFP dual reporter) was 76.3%.

Regarding “sense rGrGrUrCrArArArArCrCrCrUrUrArCrCrArUrGdTdT / antisense rCrArUrGrGrUrArArGrGrGrUrUrUrUrGrArCrCdTdC”, the normalised inhibition (eCFP-eYFP dual reporter) was determined as 84.5%.

The values above are taken from the OligoGym collection.
